For 14 compounds, IC50 and GI50 results are on record in US9834571B2, “Compounds for inhibiting cell proliferation in EGFR-driven cancers” (ARIAD Pharmaceuticals, Inc., priority 2012, dated 2017).

Assay [1] relates to BaF3 cells expressing wildtype EGFR. Kind of assay: Antiproliferative activity (MTT) against control BaF3 cells expressing wildtype EGFR. The class given is cell-based. Particulars: Mus musculus. The method, then: (§1) We also assessed the antiproliferative activity of compounds of Formula (I) against BaF3 cells expressing the target EGFR mutations or control (i.e., cell lines expressing wildtype EGFR). Assays were conducted using MTT.

For assay [2], the target named is T1, BaF3 cells expressing the target EGFR mutations (Homo sapiens, UniProt P00533, T790M, cells depend on it, form not given).
T1 construct: IC50, BAF3 EGFR DEL T790M PURO POOL; other: BAF3 EGFR DEL T790M PURO POOL cells, MTT; other: BAF3 EGFR DEL T790M PURO POOL cells; MTT
T1 sequence (P00533 with tags, fused parts or gaps DEL746-750/T790M, form open): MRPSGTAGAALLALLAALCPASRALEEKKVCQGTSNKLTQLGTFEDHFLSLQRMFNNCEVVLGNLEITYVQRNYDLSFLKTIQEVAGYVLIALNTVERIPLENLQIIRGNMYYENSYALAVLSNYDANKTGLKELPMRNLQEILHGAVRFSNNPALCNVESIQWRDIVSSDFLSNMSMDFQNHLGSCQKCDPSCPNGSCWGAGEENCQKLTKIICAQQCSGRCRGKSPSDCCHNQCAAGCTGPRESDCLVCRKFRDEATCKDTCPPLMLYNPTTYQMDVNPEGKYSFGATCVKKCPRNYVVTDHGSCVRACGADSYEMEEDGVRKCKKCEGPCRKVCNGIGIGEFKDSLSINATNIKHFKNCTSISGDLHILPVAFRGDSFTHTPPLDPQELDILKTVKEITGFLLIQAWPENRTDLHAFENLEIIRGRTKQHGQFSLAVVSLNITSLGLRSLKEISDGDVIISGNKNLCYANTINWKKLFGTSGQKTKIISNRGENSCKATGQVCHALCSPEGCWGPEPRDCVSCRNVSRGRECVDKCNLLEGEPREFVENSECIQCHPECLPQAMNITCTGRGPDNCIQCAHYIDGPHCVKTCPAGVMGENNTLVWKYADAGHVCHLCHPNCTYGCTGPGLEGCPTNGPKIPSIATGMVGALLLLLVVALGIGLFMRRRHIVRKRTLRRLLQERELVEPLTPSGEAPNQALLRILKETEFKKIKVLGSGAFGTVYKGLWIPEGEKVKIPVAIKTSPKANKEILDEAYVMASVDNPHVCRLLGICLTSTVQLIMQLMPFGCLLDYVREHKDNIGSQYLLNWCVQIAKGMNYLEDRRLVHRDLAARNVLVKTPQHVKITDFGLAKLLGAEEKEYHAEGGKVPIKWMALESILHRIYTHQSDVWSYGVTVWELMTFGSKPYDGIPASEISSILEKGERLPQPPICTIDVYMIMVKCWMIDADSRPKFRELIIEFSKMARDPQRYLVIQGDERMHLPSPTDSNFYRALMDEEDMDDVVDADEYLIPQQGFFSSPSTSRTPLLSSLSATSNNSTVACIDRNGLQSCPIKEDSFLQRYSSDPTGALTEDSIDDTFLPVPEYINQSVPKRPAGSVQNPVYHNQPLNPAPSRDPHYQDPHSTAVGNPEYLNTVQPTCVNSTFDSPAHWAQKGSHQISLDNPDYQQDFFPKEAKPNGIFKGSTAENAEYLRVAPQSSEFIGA
Description: Antiproliferative activity (MTT) against BaF3 cells expressing the target EGFR mutations. Particulars: BAF3 EGFR DEL T790M PURO POOL cells, read-out: IC50, BAF3 EGFR DEL T790M PURO POOL. The class given is cell-based. The method, then: as §1

Assay [3] has as its target T2, BaF3 cells expressing the target EGFR mutations (Homo sapiens, UniProt P00533, T790M/L858R, cells depend on it).
T2 construct: IC50, BAF3 EGFR L858R-T790M PURO POOL; other: BAF3 EGFR L858R-T790M PURO POOL cells, MTT; IC50, BAF3 EGFR L858R-T790M PURO POOL; other: BAF3 EGFR L858R-T790M PURO POOL cells; MTT
Described as above. The class given is cell-based. Particulars: BAF3 EGFR L858R-T790M PURO POOL cells, read-out: IC50, BAF3 EGFR L858R-T790M PURO POOL. The method, then:
as §1

A further assay deals with EGFR L858R (Homo sapiens, UniProt P00533, L858R). Description: Kinase inhibitory activity against EGFR bearing the L858R mutation. The class given is biochemical. The following applies: 10 μM ATP, read-out: IC50 for kinase inhibition, EGFR L858R. Here is the method: (§2) Kinase inhibitory activity of the compounds was measured against human EGFR (native sequence) and against EGFR bearing the L858R mution and the L858R/T790M double mutation (EGFR, L858R, and L858R/T790M, respectively in Table 1). Additional assays can be conducted with EGFR deletion mutants such as delE746-A750 with or without the additional T790M mutation. Assay conditions included 10 pt curves with 3 μM top concentration (singlicates) and 10 μM ATP.
Sequence of EGFR L858R (P00533 25-1210 L858R): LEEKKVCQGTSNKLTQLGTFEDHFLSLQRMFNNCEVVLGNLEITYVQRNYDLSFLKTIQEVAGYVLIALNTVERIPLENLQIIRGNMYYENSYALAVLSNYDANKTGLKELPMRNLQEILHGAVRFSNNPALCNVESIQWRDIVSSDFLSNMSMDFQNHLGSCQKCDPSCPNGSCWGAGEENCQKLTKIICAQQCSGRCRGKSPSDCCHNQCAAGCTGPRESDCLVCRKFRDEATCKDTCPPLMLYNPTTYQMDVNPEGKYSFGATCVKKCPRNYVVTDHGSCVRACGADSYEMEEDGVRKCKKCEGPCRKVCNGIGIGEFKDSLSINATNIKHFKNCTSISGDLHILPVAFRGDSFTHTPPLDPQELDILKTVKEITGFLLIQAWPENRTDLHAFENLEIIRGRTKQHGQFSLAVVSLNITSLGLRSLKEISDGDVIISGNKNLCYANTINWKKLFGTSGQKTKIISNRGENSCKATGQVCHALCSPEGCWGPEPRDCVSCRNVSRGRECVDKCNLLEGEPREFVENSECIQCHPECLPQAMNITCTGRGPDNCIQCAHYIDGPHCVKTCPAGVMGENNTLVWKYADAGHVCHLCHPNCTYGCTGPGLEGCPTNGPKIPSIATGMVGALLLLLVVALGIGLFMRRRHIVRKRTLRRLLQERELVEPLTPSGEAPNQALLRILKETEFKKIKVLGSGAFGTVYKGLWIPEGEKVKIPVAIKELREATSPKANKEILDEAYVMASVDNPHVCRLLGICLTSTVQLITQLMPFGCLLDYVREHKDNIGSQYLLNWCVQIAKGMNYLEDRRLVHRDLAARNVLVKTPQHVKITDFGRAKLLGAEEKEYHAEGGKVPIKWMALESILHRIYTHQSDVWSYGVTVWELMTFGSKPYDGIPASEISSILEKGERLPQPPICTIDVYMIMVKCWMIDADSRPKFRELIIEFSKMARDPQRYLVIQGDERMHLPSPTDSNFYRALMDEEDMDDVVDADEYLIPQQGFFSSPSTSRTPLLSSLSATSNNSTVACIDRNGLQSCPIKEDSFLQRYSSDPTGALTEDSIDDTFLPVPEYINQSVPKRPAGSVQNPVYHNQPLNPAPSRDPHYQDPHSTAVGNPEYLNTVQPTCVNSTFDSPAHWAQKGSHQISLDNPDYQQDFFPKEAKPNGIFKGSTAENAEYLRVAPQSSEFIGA

Assay [4] deals with human EGFR (native sequence) (Homo sapiens, UniProt P00533). Kind of assay: Kinase inhibitory activity against human EGFR (native sequence). The following applies: 10 μM ATP, read-out: IC50 for kinase inhibition, EGFR. The class given is biochemical. Here is the method:
as §2

The target of a further assay is EGFR L858R/T790M (Homo sapiens, UniProt P00533, L858R/T790M). Description: Kinase inhibitory activity against EGFR bearing the L858R/T790M double mutation. The class given is biochemical. The following applies: 10 μM ATP, read-out: IC50 for kinase inhibition, EGFR L858R T790M. Here is the method:
as §2

Where [5] appears, read: EGFR L858R/T790M double mutation.
The mark [6] stands for this setting: 10 pt curves, 3 μM top concentration.

The term IC50 denotes the concentration that inhibits the measured activity by half.

Like-named read-outs stand apart in the source and are kept apart here.

Sequence of human EGFR (native sequence) (P00533 25-1210): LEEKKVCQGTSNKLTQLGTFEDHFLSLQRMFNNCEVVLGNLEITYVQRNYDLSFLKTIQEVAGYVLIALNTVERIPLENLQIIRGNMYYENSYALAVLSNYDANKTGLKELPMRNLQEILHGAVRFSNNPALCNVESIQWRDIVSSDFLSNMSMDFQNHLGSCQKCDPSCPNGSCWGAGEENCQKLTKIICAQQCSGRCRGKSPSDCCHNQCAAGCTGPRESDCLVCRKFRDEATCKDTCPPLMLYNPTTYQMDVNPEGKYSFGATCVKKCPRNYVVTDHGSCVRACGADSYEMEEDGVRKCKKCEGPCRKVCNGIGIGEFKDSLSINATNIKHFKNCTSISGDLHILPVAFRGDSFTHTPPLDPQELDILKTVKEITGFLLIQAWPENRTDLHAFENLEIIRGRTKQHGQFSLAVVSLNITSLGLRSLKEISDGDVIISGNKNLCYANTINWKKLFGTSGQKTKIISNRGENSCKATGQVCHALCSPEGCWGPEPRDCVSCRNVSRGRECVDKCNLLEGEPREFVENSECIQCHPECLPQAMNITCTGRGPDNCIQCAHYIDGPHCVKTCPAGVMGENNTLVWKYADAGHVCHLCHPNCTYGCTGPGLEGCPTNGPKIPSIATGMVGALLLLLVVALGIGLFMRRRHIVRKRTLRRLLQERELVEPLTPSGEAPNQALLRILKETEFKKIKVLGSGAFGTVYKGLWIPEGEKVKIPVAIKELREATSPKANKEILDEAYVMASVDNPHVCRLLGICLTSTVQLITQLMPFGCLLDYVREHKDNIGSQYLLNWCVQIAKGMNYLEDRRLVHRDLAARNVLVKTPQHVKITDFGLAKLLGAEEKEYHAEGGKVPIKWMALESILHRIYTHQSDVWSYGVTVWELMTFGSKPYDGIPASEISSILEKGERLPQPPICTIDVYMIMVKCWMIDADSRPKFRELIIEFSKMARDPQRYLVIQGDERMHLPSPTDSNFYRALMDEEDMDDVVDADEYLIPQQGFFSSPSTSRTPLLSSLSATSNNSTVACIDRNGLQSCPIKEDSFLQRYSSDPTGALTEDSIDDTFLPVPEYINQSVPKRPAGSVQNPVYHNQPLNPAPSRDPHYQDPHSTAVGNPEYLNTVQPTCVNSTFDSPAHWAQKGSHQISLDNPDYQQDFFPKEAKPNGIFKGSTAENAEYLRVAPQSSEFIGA
T2 sequence (P00533 whole entry T790M/L858R): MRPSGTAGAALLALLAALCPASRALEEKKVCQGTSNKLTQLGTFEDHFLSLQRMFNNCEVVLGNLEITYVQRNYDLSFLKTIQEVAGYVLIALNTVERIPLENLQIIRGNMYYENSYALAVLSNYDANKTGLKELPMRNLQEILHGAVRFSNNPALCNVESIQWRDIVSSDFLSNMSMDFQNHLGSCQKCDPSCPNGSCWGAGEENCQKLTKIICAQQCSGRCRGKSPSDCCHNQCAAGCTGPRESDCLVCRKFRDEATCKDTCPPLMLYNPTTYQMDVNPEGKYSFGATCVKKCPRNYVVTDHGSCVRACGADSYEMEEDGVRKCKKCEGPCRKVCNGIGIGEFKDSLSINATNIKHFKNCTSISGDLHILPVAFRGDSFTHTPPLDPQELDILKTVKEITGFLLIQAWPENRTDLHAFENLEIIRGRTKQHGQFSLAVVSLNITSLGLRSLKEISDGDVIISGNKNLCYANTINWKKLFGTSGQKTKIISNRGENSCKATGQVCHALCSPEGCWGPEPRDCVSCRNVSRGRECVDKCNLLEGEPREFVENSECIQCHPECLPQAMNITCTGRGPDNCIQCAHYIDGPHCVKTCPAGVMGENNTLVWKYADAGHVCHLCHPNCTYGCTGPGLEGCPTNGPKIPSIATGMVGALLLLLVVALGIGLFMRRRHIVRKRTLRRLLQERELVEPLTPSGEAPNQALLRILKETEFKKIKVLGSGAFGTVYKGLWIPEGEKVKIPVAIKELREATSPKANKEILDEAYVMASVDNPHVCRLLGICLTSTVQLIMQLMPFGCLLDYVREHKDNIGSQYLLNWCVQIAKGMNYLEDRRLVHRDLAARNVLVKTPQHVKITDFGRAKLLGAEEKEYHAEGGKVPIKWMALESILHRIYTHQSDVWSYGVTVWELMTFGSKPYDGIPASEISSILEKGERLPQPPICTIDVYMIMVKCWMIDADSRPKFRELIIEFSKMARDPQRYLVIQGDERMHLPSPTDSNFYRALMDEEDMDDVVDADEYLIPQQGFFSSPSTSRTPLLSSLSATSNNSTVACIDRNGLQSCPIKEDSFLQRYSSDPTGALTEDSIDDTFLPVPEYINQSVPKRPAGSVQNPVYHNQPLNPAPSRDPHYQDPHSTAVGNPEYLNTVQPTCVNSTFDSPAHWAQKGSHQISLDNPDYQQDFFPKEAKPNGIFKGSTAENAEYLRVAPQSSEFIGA

As for `C=C(CN1CCOCC1)C(=O)Nc1ccc(OC)c(Nc2ncc(Cl)c(Nc3ccccc3P(C)(C)=O)n2)c1` [Example 48, N-(3-((5-chloro-4-((2-(dimethylphosphoryl)phenyl)amino)pyrimidin-2-yl)amino)-4-methoxyphenyl)-2-(morpholinomethyl)acrylamide], the IC50 was no less than 250 nM in assay [1] (BAF3 PARENTAL cells (control)), less than 50 nM on EGFR L858R (EGFR L858R), less than 50 nM in assay [4] (human EGFR native sequence) and less than 50 nM on EGFR L858R/T790M (setting [5]). In addition, the GI50 in assay [2] and in assay [3] was less than 50 nM each time.
For `C=CC(=O)Nc1cc(Nc2ncc(Cl)c(Nc3ccccc3P(C)(C)=O)n2)c(OC)cc1N(C)CCN(C)CCF` [Example 67, N-(5-((5-chloro-4-((2-(dimethylphosphoryl)phenyl)amino)pyrimidin-2-yl)amino)-2-((2-((2-fluoroethyl)(methyl)amino)ethyl)(methyl)amino)-4-methoxyphenyl)acrylamide], the IC50 was no less than 250 nM in assay [1] (BAF3 PARENTAL cells (control)), less than 50 nM on EGFR L858R (EGFR L858R), less than 50 nM in assay [4] (human EGFR native sequence) and less than 50 nM at EGFR L858R/T790M (setting [5]). In addition, the GI50 in assay [2] and in assay [3] was less than 50 nM in each case.
As to `C=CC(=O)Nc1cc(Nc2ncc(Cl)c(Nc3ccccc3P(C)(C)=O)n2)c(OC)cc1C#CCN(C)C` [Example 124, N-(5-((5-chloro-4-((2-(dimethylphosphoryl)phenyl)amino)pyrimidin-2-yl)amino)-2-(3-(dimethylamino)prop-1-yn-1-yl)-4-methoxyphenyl)acrylamide], the IC50 was no less than 250 nM in assay [1] (BAF3 parental cells), less than 50 nM on EGFR L858R (setting [6]), less than 50 nM in assay [4] (setting [6]) and less than 50 nM on EGFR L858R/T790M (setting [6]). Moreover, the GI50 in assay [2] and in assay [3] was less than 50 nM each time.
For the compound `C=CC(=O)Nc1cc(Nc2ncc(Cl)c(Nc3ccccc3P(C)(C)=O)n2)c(OC)cc1OCc1cccnc1` [Example 10, N-(5-((5-chloro-4-((2-(dimethylphosphoryl)phenyl)amino)pyrimidin-2-yl)amino)-4-methoxy-2-(pyridin-3-ylmethoxy)phenyl)acrylamide], the IC50 in assay [1] (BAF3 PARENTAL cells (control)) is no less than 250 nM; at EGFR L858R (EGFR L858R), less than 50 nM; in assay [4] (human EGFR native sequence), 50 to 100 nM; on EGFR L858R/T790M (setting [5]), less than 50 nM. Further, the GI50 in assay [2] is 50 to 100 nM; in assay [3], 101 to 250 nM.
Consider `C=CC(=O)Nc1cc(Nc2ncc(Cl)c(Nc3ccccc3P(C)(C)=O)n2)c(OC)cc1OC(COC)CN(C)C` (stereo not drawn) [Example 130, N-(5-((5-chloro-4-((2-(dimethylphosphoryl)phenyl)amino)pyrimidin-2-yl)amino)-2-((1-(dimethylamino)-3-methoxypropan-2-yl)oxy)-4-methoxyphenyl)acrylamide], for which the IC50 is no less than 250 nM in assay [1] (BAF3 parental cells), less than 50 nM at EGFR L858R (setting [6]), less than 50 nM in assay [4] (setting [6]) and less than 50 nM at EGFR L858R/T790M (setting [6]). Also, the GI50 in assay [2] and in assay [3] was less than 50 nM each time.
`C=CC(=O)Nc1cc(Nc2ncc(Cl)c(Nc3ccccc3P(C)(C)=O)n2)c(OC)cc1C#CC(C)(C)N(C)C` [Example 155, N-(5-((5-chloro-4-((2-(dimethylphosphoryl)phenyl)amino)pyrimidin-2-yl)amino)-2-(3-(dimethylamino)-3-methylbut-1-yn-1-yl)-4-methoxyphenyl)acrylamide]: the concentration for half-maximal inhibition (IC50) is no less than 250 nM in assay [1] (BAF3 parental cells), less than 50 nM on EGFR L858R (setting [6]), less than 50 nM in assay [4] (setting [6]) and less than 50 nM at EGFR L858R/T790M (setting [6]). The GI50 in assay [2] and in assay [3] was less than 50 nM in each case.
On to `COc1ccc(NC(=O)C#CCN(C)C)cc1Nc1ncc(Cl)c(Nc2ccccc2P(C)(C)=O)n1` [Example 81, N-(3-((5-chloro-4-((2-(dimethylphosphoryl)phenyl)amino)pyrimidin-2-yl)amino)-4-methoxyphenyl)-4-(dimethylamino)but-2-ynamide], for which the concentration for half-maximal inhibition (IC50) in assay [1] (BAF3 PARENTAL cells (control)) was no less than 250 nM; on EGFR L858R (EGFR L858R), less than 50 nM; in assay [4] (human EGFR native sequence), less than 50 nM; at EGFR L858R/T790M (setting [5]) it was less than 50 nM. Also, the GI50 in assay [2] and in assay [3] was less than 50 nM each time.
Consider `C=CC(=O)Nc1cc(Nc2ncc(Cl)c(Nc3ccccc3P(C)(C)=O)n2)c(OC)cc1OCCN1CCCC1` [Example 1, N-(5-((5-chloro-4-((2-(dimethylphosphoryl)phenyl)amino)pyrimidin-2-yl)amino)-4-methoxy-2-(2-(pyrrolidin-1-yl)ethoxy)phenyl)acrylamide], for which the IC50 in assay [1] (BAF3 PARENTAL cells (control)) was no less than 250 nM; at EGFR L858R (EGFR L858R), less than 50 nM; in assay [4] (human EGFR native sequence), less than 50 nM; at EGFR L858R/T790M (setting [5]), less than 50 nM. In addition, the GI50 in assay [2] and in assay [3] was less than 50 nM each time.
With `C=CC(=O)Nc1ccc(OC)c(Nc2ncc(OC)c(Nc3ccccc3P(C)(C)=O)n2)c1` [Example 131, N-(3-((4-((2-(dimethylphosphoryl)phenyl)amino)-5-methoxypyrimidin-2-yl)amino)-4-methoxyphenyl)acrylamide], the half-inhibitory concentration (IC50) was no less than 250 nM in assay [1] (BAF3 parental cells), less than 50 nM at EGFR L858R (setting [6]), 50 to 100 nM in assay [4] (setting [6]) and less than 50 nM at EGFR L858R/T790M (setting [6]). For the same compound, the figures for the GI50 in assay [2] and in assay [3] were less than 50 nM and 50 to 100 nM, respectively.
For the compound `C=C(CN1CCC(N2CCN(C)CC2)CC1)C(=O)Nc1ccc(OC)c(Nc2ncc(Cl)c(Nc3ccccc3P(C)(C)=O)n2)c1` [Example 45, N-(3-((5-chloro-4-((2-(dimethylphosphoryl)phenyl)amino)pyrimidin-2-yl)amino)-4-methoxyphenyl)-2-((4-(4-methylpiperazin-1-yl)piperidin-1-yl)methyl)acrylamide], the concentration for half-maximal inhibition (IC50) in assay [1] (BAF3 PARENTAL cells (control)) was no less than 250 nM; on EGFR L858R (EGFR L858R), less than 50 nM; in assay [4] (human EGFR native sequence), less than 50 nM; at EGFR L858R/T790M (setting [5]), less than 50 nM. Also, the GI50 in assay [2] and in assay [3] was less than 50 nM in each case.
With `C=CC(=O)Nc1cc(Nc2ncc(Cl)c(Nc3ccccc3P(C)(C)=O)n2)c(OC)cc1C#CCN(CC)CC` [Example 96, N-(5-((5-chloro-4-((2-(dimethylphosphoryl)phenyl)amino)pyrimidin-2-yl)amino)-2-(3-(diethylamino)prop-1-yn-1-yl)-4-methoxyphenyl)acrylamide], the IC50 is no less than 250 nM in assay [1] (BAF3 PARENTAL cells (control)), less than 50 nM on EGFR L858R (EGFR L858R), no less than 250 nM in assay [4] (human EGFR native sequence) and less than 50 nM on EGFR L858R/T790M (setting [5]). The GI50 in assay [2] and in assay [3] was less than 50 nM in each case.
On to `C=CC(=O)Nc1cc(Nc2ncc(Cl)c(Nc3ccccc3P(C)(C)=O)n2)c(OC)cc1N1CCC(N(C)CCN(CC)CC)C1` (stereo not drawn) [Example 38, N-(5-((5-chloro-4-((2-(dimethylphosphoryl)phenyl)amino)pyrimidin-2-yl)amino)-2-(3-((2-(diethylamino)ethyl)(methyl)amino)pyrrolidin-1-yl)-4-methoxyphenyl)acrylamide], for which the IC50 is no less than 250 nM in assay [1] (BAF3 PARENTAL cells (control)), less than 50 nM at EGFR L858R (EGFR L858R), less than 50 nM in assay [4] (human EGFR native sequence) and less than 50 nM at EGFR L858R/T790M (setting [5]). Moreover, the results for the GI50 in assay [2] and in assay [3] were less than 50 nM and 101 to 250 nM, respectively.
In the case of `C=CC(=O)Nc1cc(Nc2ncc(Cl)c(Nc3ccccc3P(C)(C)=O)n2)c(OC)cc1C#CC(C)(C)N(CC)CC` [Example 154, N-(5-((5-chloro-4-((2-(dimethylphosphoryl)phenyl)amino)pyrimidin-2-yl)amino)-2-(3-(diethylamino)-3-methylbut-1-yn-1-yl)-4-methoxyphenyl)acrylamide], the concentration for half-maximal inhibition (IC50) is no less than 250 nM in assay [1] (BAF3 parental cells), less than 50 nM at EGFR L858R (setting [6]), less than 50 nM in assay [4] (setting [6]) and less than 50 nM at EGFR L858R/T790M (setting [6]). Moreover, the GI50 in assay [2] and in assay [3] was less than 50 nM throughout.
Regarding `COCC1CCCN1CCC#CC(=O)Nc1cc(Nc2ncc(Cl)c(Nc3ccccc3P(C)(C)=O)n2)c(OC)cc1N1CCOCC1` (stereo not drawn) [Example 122, N-(5-((5-chloro-4-((2-(dimethylphosphoryl)phenyl)amino)pyrimidin-2-yl)amino)-4-methoxy-2-morpholinophenyl)-5-(2-(methoxymethyl)pyrrolidin-1-yl)pent-2-ynamide], the IC50 in assay [1] (BAF3 parental cells) is no less than 250 nM; at EGFR L858R (setting [6]) it was less than 50 nM; in assay [4] (setting [6]), less than 50 nM; on EGFR L858R/T790M (setting [6]) it was less than 50 nM. The GI50 in assay [2] and in assay [3] was less than 50 nM throughout.
